# From ChEMBL document CHEMBL1133196, “A model for ZnII-containing-beta-lactamase: synthesis, X-ray crystal structure of a zinc(II) complex bearing thiol group and hydrolysis of phosphate diester” (Bioorg Med Chem Lett, 2000)
# Legend:
# [1] = Dissociation constant was evaluated; format: physicochemical
# [2] = Rate of hydrolysis of nitrocefin by compound was evaluated in water; format: ADME; settings: buffer
pKa [1],Activity [2],SMILES
9.4,2.52e-08 M⁻¹ s⁻¹,Cl.Cl.[Zn+2].c1ccc(CNCc2ccccn2)nc1
9,6.5e-09 M⁻¹ s⁻¹,[Cl-].[S-]CCN(Cc1ccccn1)Cc1ccccn1.[Zn+2]
